Data set [1] concerns the target T1, CYP3A4 (Homo sapiens, UniProt P08684).
T1 construct: tissue BD-Gentest 452117; host or cells: human liver microsomes
Briefly: CYP inhibition assay in human liver microsome, CYP3A4. Conditions: substrate midazolam 5 μM, third value of 2C9/2D6/3A4. The data set is classed as in vitro ADME. In outline: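 Pooled human liver microsomes with a substrate for each CYP were incubated with compound at 37 °C after NADPH addition, for 5 min (CYP2D6: 10 min), then quenched with acetonitrile containing labelled metabolite standards. Metabolite/internal-standard peak area ratios were measured by RapidFire MS/MS. % inhibition was scaled between DMSO and standard-inhibitor controls.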
Background: Liver microsomes are a subcellular fraction often used to study metabolism.

Data set [2] concerns the target T2, hTLR9 (Homo sapiens, UniProt Q9NR96).
T2 sequence (Q9NR96 26-1032): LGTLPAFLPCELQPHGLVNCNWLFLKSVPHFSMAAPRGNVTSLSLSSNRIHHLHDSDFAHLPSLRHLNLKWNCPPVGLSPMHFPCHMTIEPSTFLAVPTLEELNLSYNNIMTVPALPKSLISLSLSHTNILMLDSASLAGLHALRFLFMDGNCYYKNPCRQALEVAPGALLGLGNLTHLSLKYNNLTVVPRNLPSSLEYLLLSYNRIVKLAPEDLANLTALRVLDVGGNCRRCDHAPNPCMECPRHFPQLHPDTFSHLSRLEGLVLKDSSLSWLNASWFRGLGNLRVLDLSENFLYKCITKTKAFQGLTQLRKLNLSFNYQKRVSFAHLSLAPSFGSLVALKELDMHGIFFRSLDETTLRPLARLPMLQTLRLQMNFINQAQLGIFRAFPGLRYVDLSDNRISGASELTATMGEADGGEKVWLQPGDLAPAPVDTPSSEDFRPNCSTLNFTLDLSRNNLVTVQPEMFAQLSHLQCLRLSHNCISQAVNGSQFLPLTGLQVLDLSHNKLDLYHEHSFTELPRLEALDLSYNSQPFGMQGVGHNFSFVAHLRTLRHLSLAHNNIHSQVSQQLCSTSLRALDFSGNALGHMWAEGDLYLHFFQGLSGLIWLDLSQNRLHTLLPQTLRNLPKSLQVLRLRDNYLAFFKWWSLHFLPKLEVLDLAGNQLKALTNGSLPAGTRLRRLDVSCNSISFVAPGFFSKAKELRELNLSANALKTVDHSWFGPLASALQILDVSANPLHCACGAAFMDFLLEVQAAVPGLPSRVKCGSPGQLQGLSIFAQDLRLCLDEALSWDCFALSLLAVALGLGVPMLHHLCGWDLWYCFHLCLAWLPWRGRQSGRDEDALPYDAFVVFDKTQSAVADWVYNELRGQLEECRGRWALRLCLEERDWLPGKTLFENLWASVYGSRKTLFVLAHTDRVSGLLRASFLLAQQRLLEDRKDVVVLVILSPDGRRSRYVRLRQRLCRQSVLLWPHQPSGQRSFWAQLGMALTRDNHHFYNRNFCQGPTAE
Briefly: HEK293-Blue-hTLR-9 cells assay (SEAP reporter, ODN2006 stimulation). Further details: host or cells: HEK293 (HEK-Blue hTLR9). The conditions noted are these: HEK293-Blue-hTLR9 cells, ODN2006, 20 hrs; read-out: HEK/hTLR9 IC50. The data set is classed as cell-based. An outline of the steps: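 Antagonism read as lowered SEAP reporter absorbance (620–655 nm, QUANTI-Blue, 2 h, 37 °C) in supernatants. Before that, ODN2006-stimulated HEK293-Blue cells stably expressing human TLR9 were exposed to compound dilutions at 1% final DMSO for 20 h at 37 °C.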

SMILES strings stand for the structures. pIC50: −log10 of the molar value.

T1 sequence (P08684 whole entry): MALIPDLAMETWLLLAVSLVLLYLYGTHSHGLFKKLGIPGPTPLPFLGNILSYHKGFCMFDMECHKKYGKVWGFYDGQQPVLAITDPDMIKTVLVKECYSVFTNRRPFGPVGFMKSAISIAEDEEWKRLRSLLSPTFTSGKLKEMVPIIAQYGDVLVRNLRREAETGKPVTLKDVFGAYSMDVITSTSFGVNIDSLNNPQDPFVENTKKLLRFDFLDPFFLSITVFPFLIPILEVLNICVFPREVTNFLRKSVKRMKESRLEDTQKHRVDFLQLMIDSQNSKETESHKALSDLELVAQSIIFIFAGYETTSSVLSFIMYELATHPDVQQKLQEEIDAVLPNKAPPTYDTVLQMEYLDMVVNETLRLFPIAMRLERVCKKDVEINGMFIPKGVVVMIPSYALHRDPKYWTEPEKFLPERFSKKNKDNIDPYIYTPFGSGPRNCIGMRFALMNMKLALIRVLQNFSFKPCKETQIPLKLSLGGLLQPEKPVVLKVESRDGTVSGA

Consider `CO[C@H]1CN(c2nccc(N3CCN(C[C@H]4CN(c5ccc(C#N)c6ncccc56)C[C@@H](C)O4)CC3)n2)CC1N` (stereo in doubt) [Example 53, 5-[(2S,6R)-2-[[4-[2-[(3S,4S)-3-amino-4-methoxy-pyrrolidin-1-yl]pyrimidin-4-yl]piperazin-1-yl]methyl]-6-methyl-morpholin-4-yl]quinoline-8-carbonitrile], for which the “CYP (%) 3A4 inhibition” value in data set [1] worked out at 7.5%. For the same molecule, in data set [2], the pIC50 was 7.49.
What is called inhibition is the relative decrease from the control value, in per cent. For the molecule `C[C@@H]1CN(c2ccc(C#N)c3ncccc23)C[C@H](CN2CCN(c3cc(N4CCN(C)CC4)ncn3)CC2)O1` [Example 21, 5-[(2R,6S)-2-methyl-6-[[4-[6-(4-methylpiperazin-1-yl)pyrimidin-4-yl]piperazin-1-yl]methyl]morpholin-4-yl]quinoline-8-carbonitrile], the inhibition at 5 min, 10 µM in data set [1] (human, human liver microsomes, probe midazolam 5 μM) is -1.5%. Also, the pIC50 in data set [2] was 6.66.
